{"source": "patent US11154533B2", "about": "“Topical compositions and methods for treating inflammatory skin diseases” (Azora Therapeutics, Inc., priority 2019, dated 2021)", "test_in_all_cases": "Pharmacodynamics in Th17-stimulated human skin on Franz cell, qPCR", "format_in_all_cases": "cell-based", "details_in_all_cases": "control added to receptor solution at 40 hours and 16 hours prior to Th17 stimulation", "key": {"[1]": {"test_system": "IL17-alpha", "protocol": "(§1) Example 5 describes results of a study on the pharmacodynamics of composition identified as formulation identification no. OO14. In this study, human skin placed on a static in vitro diffusion cell and a fixed amount of the formulation was applied to the skin. The formulation was applied to the skin at either 16 hours prior to or both 40 hours and 16 hours prior to Th17 stimulation. The receptor solution was replaced with the Th17 stimulation media was incubated for 24 hours prior to harvesting. […] As a control, 0.01% betamethasone (BMV) was added to the receptor solution at both 40 hours and 16 hours prior to Th17 stimulation.\n(§2) Freshly excised human skin was dermatomed to 750 microns with the stratum corneum intact and placed on a static Franz cell employing ˜0.6 cm^2 of skin. 10 μL of a topical formulation OO14 containing 0.079% synthetic indirubin was applied to the skin at either 16 hours prior to stimulation or both 40 hours and 16 hours prior to Th17 stimulation. As a control, 0.01% betamethasone (BMV) was added to the receptor solution at both 40 hours and 16 hours prior to Th17 stimulation. The Th17 stimulation media contains a mixture of cytokines and antibodies shown to induce Th17 polarization and was made and added as described in the skin resident immune cell activation assay in Smith S. H. et al., PLoS ONE 11(2): e0147979. The skin was cultured for an additional 24 hours prior to harvesting for qPCR and staining for AhR activation."}, "[2]": {"test_system": "IL1-beta", "protocol": "as §1, §2"}, "[3]": {"test_system": "IL8", "protocol": "as §1, §2"}, "[4]": {"test_system": "S100A7", "protocol": "as §1, §2"}}, "data": [{"smiles": "C[C@H]1C[C@H]2[C@@H]3CCC4=CC(=O)C=C[C@]4(C)[C@@]3(F)[C@@H](O)C[C@]2(C)[C@@]1(O)C(=O)CO", "note": "[0.01% BMV, betamethasone]", "values": [{"measurement": "% Inhibition Compared to Th17, IL17-alpha", "setting": "[1]", "value": 96.99, "unit": "%"}, {"measurement": "% Inhibition Compared to Th17, IL1-beta", "setting": "[2]", "value": 58.66, "unit": "%"}, {"measurement": "% Inhibition Compared to Th17, IL8", "setting": "[3]", "value": 14.01, "unit": "%"}, {"measurement": "% Inhibition Compared to Th17, S100A7", "setting": "[4]", "value": "N/I* (Not Inhibited compared to Th17)"}]}]}
